One assay addresses T1, TPM3-TRKA fusion protein (Homo sapiens, UniProt P04629).
T1 construct: The resulted chimeric proteins always retain the kinase domain of TRK proteins; TPM3 (fusion partner, N-terminal part of tropomyosin alpha-3, P06753); endogenous in cells; host or cells: KM12 colon cancer cells; the other entry of the earlier key: TPM3 (P06753, Tropomyosin alpha-3 chain)
The experiment in a line: TPM3-TRKA fusion protein levels in KM12 cells (Western blot). Format: cell-based. The following applies: for percent degradation of TPM3-TRKA protein at 0.01 µM: 16 h, TPM3-TRKA degradation in KM12 cells at 10 nM compound, category of percentage degradation, read-out: Degradation (at 10 nM); for relative effectiveness at degrading TRKA: KM12 cells, 0.4-30 nM, 8-16 hours, comparison of enantiomers (FIG. 28A-28B). The gist of the method:
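KM12 colon cancer cells were treated with DMSO or compounds at 0.1–100 nM, 0.4–30 nM or other stated concentrations for 4, 8–16 or 16 h. RIPA lysates were BCA-normalized and resolved by SDS-PAGE. TPM3-TRKA was detected by chemiluminescent Western blot, with bands quantified by densitometry.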
A general note: In western blotting, separated proteins are transferred to a membrane and probed.

Another assay concerns KM12 cells. As to the kind of experiment: KM12 cell viability (CellTiter-Glo). Type of assay: cell-based. Particulars: Homo sapiens, 72 h; KM12 cell viability, CellTiter-Glo, three days treatment; read-out: IC50. The essentials:
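KM12 cells seeded at 5000 per well in RPMI 1640 + 10% FBS and exposed 3 days to serial dilutions (11-point 3-fold, 8-point 3-fold from 1000 nM, or 12-point 2-fold). Viability by CellTiter-Glo; IC50 from least-squares nonlinear regression.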

The IC50 is the concentration that inhibits the measured activity by half.

T1 sequence (P04629 with tags, fused parts or gaps): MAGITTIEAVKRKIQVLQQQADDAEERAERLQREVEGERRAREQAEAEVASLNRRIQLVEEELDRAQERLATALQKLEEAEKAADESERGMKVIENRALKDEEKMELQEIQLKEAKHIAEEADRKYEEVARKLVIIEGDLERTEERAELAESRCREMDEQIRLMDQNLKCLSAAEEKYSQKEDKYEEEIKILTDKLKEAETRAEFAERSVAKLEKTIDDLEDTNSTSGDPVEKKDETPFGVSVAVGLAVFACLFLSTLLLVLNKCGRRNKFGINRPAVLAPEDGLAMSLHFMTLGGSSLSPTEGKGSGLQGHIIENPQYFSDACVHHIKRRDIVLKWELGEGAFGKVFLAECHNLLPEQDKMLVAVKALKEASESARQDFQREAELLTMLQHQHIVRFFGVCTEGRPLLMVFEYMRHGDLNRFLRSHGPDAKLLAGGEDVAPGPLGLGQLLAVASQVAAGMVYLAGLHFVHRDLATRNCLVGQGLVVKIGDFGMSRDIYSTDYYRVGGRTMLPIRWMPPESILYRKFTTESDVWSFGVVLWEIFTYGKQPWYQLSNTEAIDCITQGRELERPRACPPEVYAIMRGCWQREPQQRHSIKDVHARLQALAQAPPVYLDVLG

Consider `O=C1CCC(N2C(=O)c3ccc(N4CC5(C4)CN(C4CCN(c6ccc(C(=O)Nc7n[nH]c8ccc(Cc9cc(F)cc(F)c9)cc78)c(NC7CCOCC7)c6)CC4)C5)cc3C2=O)C(=O)N1` (stereo not drawn) [TR-340, N-(5-(3,5-difluorobenzyl)-1H-indazol-3-yl)-4-(4-(6-(2-(2,6-dioxopiperidin-3-yl)-1,3-dioxoisoindolin-5-yl)-2,6-diazaspiro[3.3]heptan-2-yl)piperidin-1-yl)-2-((tetrahydro-2H-pyran-4-yl)amino)benzamide], for which the percent degradation of TPM3-TRKA protein at 0.01 µM at TPM3-TRKA fusion protein was over 80%. In the assay with KM12 cells, the IC50 is 7.5 nM.
The matching figures for `O=C1CC[C@H](N2C(=O)c3ccc(N4CC(CN5CCN(c6ccc(C(=O)Nc7n[nH]c8ccc(Cc9cc(F)cc(F)c9)cc78)c(NC7CCOCC7)c6)CC5)C4)cc3C2=O)C(=O)N1` [TR-341, (S)—N-(5-(3,5-difluorobenzyl)-1H-indazol-3-yl)-4-(4-((1-(2-(2,6-dioxopiperidin-3-yl)-1,3-dioxoisoindolin-5-yl)azetidin-3-yl)methyl)piperazin-1-yl)-2-((tetrahydro-2H-pyran-4-yl)amino)benzamide]: over 80% and 3 nM.
`O=C1CC[C@@H](N2C(=O)c3ccc(N4CC(CN5CCN(c6ccc(C(=O)Nc7n[nH]c8ccc(Cc9cc(F)cc(F)c9)cc78)c(NC7CCOCC7)c6)CC5)C4)cc3C2=O)C(=O)N1` [TR-342, (R)—N-(5-(3,5-difluorobenzyl)-1H-indazol-3-yl)-4-(4-((1-(2-(2,6-dioxopiperidin-3-yl)-1,3-dioxoisoindolin-5-yl)azetidin-3-yl)methyl)piperazin-1-yl)-2-((tetrahydro-2H-pyran-4-yl)amino)benzamide]: on TPM3-TRKA fusion protein, the percent degradation of TPM3-TRKA protein at 0.01 µM was over 80% and the “relative effectiveness at degrading TRKA” value is “more effective at degrading TRKA at lower concentrations than TR-342”. Further, in the assay with KM12 cells, the IC50 is 3 nM.
For `O=C1CC[C@H](N2C(=O)c3ccc(N4CC(N5CCN(c6ccc(C(=O)Nc7n[nH]c8ccc(Cc9cc(F)cc(F)c9)cc78)c(NC7CCOCC7)c6)CC5)C4)cc3C2=O)C(=O)N1` [TR-343, (S)—N-(5-(3,5-difluorobenzyl)-1H-indazol-3-yl)-4-(4-(1˜ (2-(2,6-dioxopiperidin-3-yl)-1,3-dioxoisoindolin-5-yl)azetidin-3-yl)piperazin-1-yl)-2-((tetrahydro-2H-pyran-4-yl)amino)benzamide] the same measures were over 80%, “more effective at degrading TRKA at lower concentrations than TR-344” and 9 nM.
Regarding `O=C1CC[C@@H](N2C(=O)c3ccc(N4CC(N5CCN(c6ccc(C(=O)Nc7n[nH]c8ccc(Cc9cc(F)cc(F)c9)cc78)c(NC7CCOCC7)c6)CC5)C4)cc3C2=O)C(=O)N1` [TR-344, (R)—N—(S-(3,5-difluorobenzyl)-1H-indazol-3-yl)-4-(4-(1-(2-(2,6-dioxopiperidin-3-yl)-1,3-dioxoisoindolin-5-yl)azetidin-3-yl)piperazin-1-yl)-2-((tetrahydro-2H-pyran-4-yl)amino)benzamide], at TPM3-TRKA fusion protein, the percent degradation of TPM3-TRKA protein at 0.01 µM was over 80%. Besides, the IC50 in the assay with KM12 cells came to 9 nM.
